Experimental data from patent US20140309295A1, “ANTIEPILEPTIC, HYPOCHOLESTEROLEMIC AND NEUROPROTECTIVE COMPOUND” (NEURON BIOPHARMA, S.A., priority 2009, published 2014).

Key:
ApoB100 mice = assay: Hypocholesterolemic effect, oral 28 days, endogenous hyperlipidemia model; format: in vivo
Description: (§1) All the animals included for the experimental process were 12-week old female mice. The experiments were conducted strictly following the Guidance on the Operation of Animals (Scientific Procedures, Act. 1986). The animals had their respective quarantine period and were treated with maximum precaution to minimize possible contaminations for inoculations and handling.
The control group received this same vehicle. Before starting the treatments and at 7, 21 and 28 days of starting them, retro-orbital blood extractions after fasting for 16 hours were carried out. The plasma was obtained from said blood, in which the total cholesterol (TC), free cholesterol (FC), cholesterol (EC), HDL-c, LDL-c, VLDL-c and apoB100 levels were evaluated by enzymatic and spectrophotometric techniques. In order to check if the effect at the lipid level involved an alteration of the oxidative stress, the redox state in the plasmas obtained was furthermore evaluated by means of the TEAC (Trolox Antioxidant Capacity Assay) technique. This technique determines the antioxidant capacity in vitro, giving an idea of the redox state of the sample analyzed by means of the absorbance capacity by electron transfer. The different components of the reaction, myoglobin, ABTS (2,2-azino-bis-(3-ethylbenzthiazoline-sulfonic acid), […] H2O2 were added to the plasmas diluted 1/10 in PBS (10 μL) in a 96-well plate. After 3 minutes of incubation, the absorbance was measured at 405 nm (with a reference of 600 nm).

[1] = test system: Aβ(1-40) and Aβ(1-42) secreted by SK-N-MC cells overexpressing APP; assay: Secretion of β-amyloid peptide in SK-N-MC cells overexpressing APP (ELISA); format: cell-based, human
Description: The assay was performed on human neuroblastoma SK-N-MC cells in culture from the American Type Culture Collection (ATCC), stably transfected with a construct carried by the APP gene (beta-amyloid precursor protein, Gene ID: 351) in isoform 695, which is the most frequent variant expressed in neurons, whereby overexpression of the APP protein is achieved. In all cases strict rules of sterility were followed and the manipulation was performed in class II biological safety cabinets following European standard EN 12469. […]
The cells were incubated (at 37° C. and 5% CO2) with these treatments for 48 hours, 500 μl of conditioned medium then being collected to perform the measurements. […] The two most frequent Aβ species, 1-40 and 1-42, were measured. […] The amount of Aβ(1-40) and Aβ(1-42) of the conditioned medium was analyzed for each treatment by means of ELISA (Enzyme-linked immunosorbent assay), using the “beta amyloid 40 ELISA” and “beta amyloid 42 ELISA” kit (Biosource), following the recommendations of the manufacturer. The results were quantified by using an increasing concentration curve with synthetic peptides. […]

[2] = test system: FVB/NHan mice inoculated with kainate (KA); assay: Mortality caused by kainate in mice (Kaplan-Meier); format: in vivo; details: 50 mg/kg i.p.
Description: as §1, with “males of the FVB/NHan strain.” for “female mice.”, “handling. […]” for “handling.”
The deaths were recorded during the entire time the assay lasted, and the results are shown in FIG. 8 by means of Kaplan-Meier survival curves. […]

CCC(CC)C(=O)O[C@H]1C[C@@H](C)C=C2C=C[C@H](C)[C@H](CC[C@@H]3C[C@@H](O)CC(=O)O3)[C@H]21 [NST0037, (1S,2S,6R,8S,8aR)-1,2,6,7,8,8a-hexahydro-3,7-dimethyl-8-[2-[(2R,4R)-tetrahydro-4-hydroxy-6-oxo-2H-pyran-2-yl]ethyl]-1-naphthalenyl-2-ethyl-butyrate]
FC and EC levels (ApoB100 mice; 50 mg/kg oral, 7, 21 and 28 days): reduction of the FC and EC levels
HDL (ApoB100 mice; 50 mg/kg oral, 28 days): reduction of VLDL and HDL
LDL (ApoB100 mice; 50 mg/kg oral, 28 days): smaller increase of LDL
VLDL (ApoB100 mice; 50 mg/kg oral, 28 days): reduction of VLDL
apolipoprotein B (apoB) levels (ApoB100 mice; 50 mg/kg oral, 28 days): visibly reduced
redox state of the plasmas (TEAC) (ApoB100 mice; 50 mg/kg oral, 28 days): decrease the redox state
plasma total cholesterol levels (ApoB100 mice; 50 mg/kg oral, 28 days, female apoB100 mice): significantly reducing the plasma total cholesterol levels
secreted Aβ(1-40) with respect to control cells ([1]; 10, 40 and 100 μM of NST0037, 48 hours): a reduction is obtained
secreted Aβ(1-42) with respect to control cells ([1]; 10 and 40 μM of NST0037, 48 hours): a reduction is obtained
mortality caused by KA (survival) ([2]; NST0037+KA+NST0037 regimen): protected against death
survival of the animals vs PBS+KA+PBS ([2]; PBS+KA+NST0037 regimen): increases
